Columns and labels:
Assay type in all cases: in vivo
[1] = test system: blackgrass (Aloepecurus myosuroides); experiment: Postemergence herbicidal activity, blackgrass; settings: rate of application 0.3 Kg/Ha, rated after 12-17 days
Protocol: The benzofused heterocyclic compounds of this invention were tested for pre- and postemergence herbicidal activity using a variety of crops and weeds. The test plants included soybean (Glycine max var. Winchester), field corn (Zea mays var. Pioneer 3732), wheat (Triticum aestivum var. Lew), morningglory (Ipomea lacunosa or Ipomea hederacea), velvetleaf (Abutilon theophrasti), green foxtail (Setaria viridis), Johnsongrass (Sorghum halepense), blackgrass (Aloepecurus myosuroides), common chickweed (Stellaria media), and common cocklebur (Xanthium strumarium L.).
For preemergence testing, two disposable fiber flats (8 cm×15 cm×25 cm) for each rate of application of each candidate herbicide were filled to an approximate depth of 6.5 cm with steam-sterilized sandy loam soil. The soil was leveled and impressed with a template to provide five evenly spaced furrows 13 cm long and 0.5 cm deep in each flat. Seeds of soybean, wheat, corn, green foxtail, and johnsongrass were planted in the furrows of the first flat, and seeds of velvetleaf, morningglory, common chickweed, cocklebur, and blackgrass were planted in the furrows of the second flat. The five-row template was employed to firmly press the seeds into place. A topping soil of equal portions of sand and sandy loam soil was placed uniformly on top of each flat to a depth of approximately 0.5 cm. Flats for postemergence testing were prepared in the same manner except that they were planted 9-14 days prior to the preemergence flats and were placed in a greenhouse and watered, thus allowing the seeds to germinate and the foliage to develop.
In both pre- and postemergence tests, a stock solution of the candidate herbicide was prepared by dissolving 0.27 g of the compound in 20 mL of water/acetone (50/50) containing 0.5% v/v sorbitan monolaurate. For an application rate of 3000 g/ha of herbicide a 10 mL portion of the stock solution was diluted with water/acetone (50/50) to 45 mL.
The preemergence flats were initially subjected to a light water spray. The four flats were placed two by two along a conveyor belt (i.e., the two preemergence followed by the two postemergence flats). The conveyor belt fed under a spray nozzle mounted about ten inches above the post-emergent foliage. The preemergent flats were elevated on the belt so that the soil surface was at the same level below the spray nozzle as the foliage canopy of the postemergent plants. The spray of herbicidal solution was commenced and once stabilized, the flats were passed under the spray at a speed to receive a coverage equivalent of 100 L/ha. At this coverage the application rates are those shown in the above table for the individual herbicidal solutions. The preemergence flats were watered immediately thereafter, placed in the greenhouse and watered regularly at the soil surface. The postemergence flats were immediately placed in the green-house and not watered until 24 hours after treatment with the test solution. Thereafter they were regularly watered at ground level. After 12-17 days the plants were examined and the phytotoxicity data were recorded.
Phytotoxicity data were taken as percent control. Percent control was determined by a method similar to the 0 to 100 rating system disclosed in “Research Methods in Weed Science,” 2nd ed., B. Truelove, Ed.; Southern Weed Science Society; Auburn University, Auburn, Ala., 1977.

[2] = test system: green foxtail (Setaria viridis); experiment: Postemergence herbicidal activity, green foxtail; settings: rate of application 0.3 Kg/Ha, rated after 12-17 days
[3] = test system: common cocklebur (Xanthium strumarium L.); experiment: Preemergence herbicidal activity, cocklebur; settings: Rate of Application 0.3 Kg/Ha, examined after 12-17 days
[4] = test system: velvetleaf (Abutilon theophrasti); experiment: Postemergence herbicidal activity, velvetleaf; settings: rate of application 0.3 Kg/Ha, rated after 12-17 days
[5] = test system: morningglory (Ipomea lacunosa or Ipomea hederacea); experiment: Preemergence herbicidal activity, morningglory; settings: Rate of Application 0.3 Kg/Ha, examined after 12-17 days
[6] = test system: Johnsongrass (Sorghum halepense); experiment: Postemergence herbicidal activity, johnsongrass; settings: rate of application 0.3 Kg/Ha, rated after 12-17 days
[7] = test system: field corn (Zea mays var. Pioneer 3732); experiment: Preemergence herbicidal activity, corn; settings: Rate of Application 0.3 Kg/Ha, examined after 12-17 days
[8] = test system: green foxtail (Setaria viridis); experiment: Preemergence herbicidal activity, green foxtail; settings: Rate of Application 0.3 Kg/Ha, examined after 12-17 days
[9] = test system: blackgrass (Aloepecurus myosuroides); experiment: Preemergence herbicidal activity, blackgrass; settings: Rate of Application 0.3 Kg/Ha, examined after 12-17 days
[10] = test system: common chickweed (Stellaria media); experiment: Preemergence herbicidal activity, chickweed; settings: Rate of Application 0.3 Kg/Ha, examined after 12-17 days
[11] = test system: common cocklebur (Xanthium strumarium L.); experiment: Postemergence herbicidal activity, cocklebur; settings: rate of application 0.3 Kg/Ha, rated after 12-17 days
[12] = test system: soybean (Glycine max var. Winchester); experiment: Postemergence herbicidal activity, soybean; settings: rate of application 0.3 Kg/Ha, rated after 12-17 days
[13] = test system: field corn (Zea mays var. Pioneer 3732); experiment: Postemergence herbicidal activity, corn; settings: rate of application 0.3 Kg/Ha, rated after 12-17 days
[14] = test system: wheat (Triticum aestivum var. Lew); experiment: Preemergence herbicidal activity, wheat; settings: Rate of Application 0.3 Kg/Ha, examined after 12-17 days
[15] = test system: Johnsongrass (Sorghum halepense); experiment: Preemergence herbicidal activity, johnsongrass; settings: Rate of Application 0.3 Kg/Ha, examined after 12-17 days
[16] = test system: wheat (Triticum aestivum var. Lew); experiment: Postemergence herbicidal activity, wheat; settings: rate of application 0.3 Kg/Ha, rated after 12-17 days
[17] = test system: morningglory (Ipomea lacunosa or Ipomea hederacea); experiment: Postemergence herbicidal activity, morningglory; settings: rate of application 0.3 Kg/Ha, rated after 12-17 days
[18] = test system: velvetleaf (Abutilon theophrasti); experiment: Preemergence herbicidal activity, velvetleaf; settings: Rate of Application 0.3 Kg/Ha, examined after 12-17 days
[19] = test system: soybean (Glycine max var. Winchester); experiment: Preemergence herbicidal activity, soybean; settings: Rate of Application 0.3 Kg/Ha, examined after 12-17 days

Row | Compound | Postemergence herbicidal activity (% control) ALOMY [1] [%] | Postemergence herbicidal activity (% control) SETVI [2] [%] | PREEMERGENCE HERBICIDAL ACTIVITY (% CONTROL) XANPE [3] [%] | Postemergence herbicidal activity (% control) ABUTH [4] [%] | PREEMERGENCE HERBICIDAL ACTIVITY (% CONTROL) IPOSS [5] [%] | Postemergence herbicidal activity (% control) SORHA [6] [%] | PREEMERGENCE HERBICIDAL ACTIVITY (% CONTROL) CRN [7] [%] | PREEMERGENCE HERBICIDAL ACTIVITY (% CONTROL) SETVI [8] [%] | PREEMERGENCE HERBICIDAL ACTIVITY (% CONTROL) ALOMY [9] [%] | PREEMERGENCE HERBICIDAL ACTIVITY (% CONTROL) STEME [10] [%] | Postemergence herbicidal activity (% control) XANPE [11] [%] | Postemergence herbicidal activity (% control) SOY [12] [%] | Postemergence herbicidal activity (% control) CRN [13] [%] | PREEMERGENCE HERBICIDAL ACTIVITY (% CONTROL) WHT [14] [%] | PREEMERGENCE HERBICIDAL ACTIVITY (% CONTROL) SORHA [15] [%] | Postemergence herbicidal activity (% control) WHT [16] [%] | Postemergence herbicidal activity (% control) IPOSS [17] [%] | PREEMERGENCE HERBICIDAL ACTIVITY (% CONTROL) ABUTH [18] [%] | PREEMERGENCE HERBICIDAL ACTIVITY (% CONTROL) SOY [19] [%]
1 | Cn1c(C(F)(F)F)cc(=O)n(-c2c(F)cc(Cl)c3cc(CCF)oc23)c1=O [Compound 237] | 100 | 100 | 100 | 100 | 100 | 100 | 90 | 100 | 100 | 100 | 100 | 100 | 100 | 90 | 100 | 95 | 100 | 100 | 100
2 | Cn1c(C(F)(F)F)cc(=O)n(-c2c(F)cc(Cl)c3cc(C(C)(C)N)oc23)c1=O [Compound 254] | 50 | 100 | 50 | 100 | 50 | 80 | 80 | 100 | 60 | 30 | 95 | 95 | 80 | 20 | 80 | 40 | 70 | 100 | 25
3 | Cn1c(C(F)(F)F)cc(=O)n(-c2c(F)cc(Cl)c3oc(NS(C)(=O)=O)nc23)c1=O [Compound 42] | 40 | 100 | 20 | 90 | 60 | 20 | 0 | 30 | 50 | 30 | 50 | 65 | 60 | 10 | 0 | 30 | 60 | 100 | 0
4 | CC(=O)OCCc1cc2c(Cl)cc(F)c(-n3c(=O)cc(C(F)(F)F)n(C)c3=O)c2o1 [Compound 260] | 90 | 100 | 100 | 100 | 100 | 90 | 80 | 100 | 95 | 100 | 100 | 90 | 70 | 70 | 100 | 80 | 100 | 100 | 100
5 | C=CCOc1nc2c(-n3c(=O)cc(C(F)(F)F)n(C)c3=O)c(F)cc(Br)c2o1 [Compound 110] | 70 | 80 | 40 | 100 | 90 | 70 | 70 | 100 | 80 | 100 | 100 | 80 | 50 | 50 | 100 | 40 | 100 | 100 | 100
6 | Cn1c(C(F)(F)F)cc(=O)n(-c2ccc(Cl)c3cc(CO)oc23)c1=O [Compound 238] | 40 | 80 | 80 | 100 | 100 | 70 | 70 | 90 | 50 | 60 | 100 | 80 | 70 | 60 | 90 | 30 | 100 | 100 | 100
7 | Cn1c(C(F)(F)F)cc(=O)n(-c2c(F)cc(Cl)c3nc(Cc4ccccc4Cl)[nH]c23)c1=O [Compound 381] | 100 | 100 | 100 | 100 | 100 | 100 | 80 | 100 | 90 | – | 100 | 95 | 95 | 40 | 80 | 40 | 100 | 100 | 100

From patent publication US6352958B1, “Cycloimido-substituted benzofused heterocyclic herbicides” (FMC Corporation, priority 1997, dated 2002)
